# Results reported in patent publication US20220160669A1, “PARENTERAL NUTRITION FORMULATION” (BAXTER INTERNATIONAL INC., priority 2020, published 2022).
# How the values were obtained:
# [1] = system: Anti-inflammatory cytokines; assay: Anti-inflammatory cytokines, summary (site not stated); assay type: in vivo, pig; set-up: key: + denotes a positive effect (compared to standard PN); ++ a very positive effect; − denotes no difference; settings: compared to standard PN
# Source text: (§1) Neonatal Yorkshire/Landrace cross bred piglets (n=72; six at a time from the same litter, repeating 12 times) were obtained from Oak Hill Genetics (Ewing, Ill.) after 48-hour sow reared for colostrum consumption and iron supplementation.
# The influence of the respective supplements on inflammation was investigated by determining Il-6, Il-1beta, TNF-alpha and Il-10 serum levels in the intervention groups compared to EN and PN according to Milo et al., Effects of Short-Chain Fatty Acid-Supplemented Total Parenteral Nutrition on Intestinal Pro-Inflammatory Cytokine Abundance. Digestive Diseases and Sciences 2002; 47:2049-2055. Jejunal and ileal samples were homogenized in double-distilled water, and the Bradford protein assay (Biorad, Hercules, Calif., USA) was performed on homogenate and plasma samples. Protein (30 μg) from each sample was denatured by boiling, and proteins were separated by size using 12.5% sodium dodecyl sulfate polyacrylamide gel electrophoresis. Separated proteins were transferred to polyvinylidene difluoride membranes (Biorad) using a semidry transfer apparatus (Biorad). Western blot analysis for TNF-alpha, IL-1beta, Il-10 and IL-6 was performed using porcine-specific polyclonal antibodies (Endogen, Woburn, Mass., USA). A mouse anti-pig monoclonal TNF-alpha antibody was used to detect TNF-alpha ([…]). Rabbit anti-pig polyclonal antibodies specific for IL-1beta and IL-6 were used to detect IL-1beta (17,500 kDa), Il-10 (18,600 kDa) and IL-6 (26,000 kDa). Membranes were developed using the Opti-4CN kit (Biorad) and photographed using the FOTO/Analyst Image Analysis System (Fotodyne, Inc., Hartland, Wis., USA). Densitometry of TNF-alpha, IL-1beta, IL-6, and Il-10 was performed using Collage Image Analysis Software 4.0 (Fotodyne, Inc.). Results are shown in FIG. 15 (Il-6), FIG. 16 (Illbeta), FIG. 17 (TNF-alpha) and FIG. 18 (Il-10).
# [2] = system: sIgA; assay: IgA quantification (jejunal sIgA, ELISA); assay type: in vivo, pig; set-up: key to IgA: + denotes a positive effect (compared to standard PN); ++ a very positive effect; − denotes no difference; settings: for IgA: compared to standard PN; for Jejunal sIgA Concentration: compared to standard PN (s-PN)
# Source text: as §1
# Small intestine probes for IgA level determination were obtained by flushing the small intestine with chilled HBSS (Hank's Balanced Salt Solution). Nasal and bronchoalveolar washings for measurement of respiratory tract IgA levels were obtained by lavage with 1 mL phosphate-buffered saline solution under anesthesia. The washings were stored in a −80° C. freezer until IgA analysis. IgA was measured in small intestinal and respiratory tract washings by sandwich enzyme-linked immunosorbent assay using a polyclonal goat anti-mouse IgA (Sigma) to coat the plate, a purified mouse IgA (Zymed Laboratories, San Francisco, Calif.) as the standard, and a horseradish peroxidase-conjugated goat anti-mouse IgA (Sigma).
# [3] = system: Neonatal Yorkshire/Landrace cross bred piglets; assay: Brain structure development by MRI; assay type: in vivo, pig; set-up: key: + denotes a positive effect (compared to standard PN); ++ a very positive effect; − denotes no difference; settings: compared to standard PN
# Source text: On study day 9, the piglets were submitted to Magnetic Resonance Imaging (MRI) using an Agilent 9.4 Tesla MRI system (Santa Clara, Calif.) to assess brain structural development and body composition. Heart rate and respiration were monitored during the entire MRI scan. For anatomic assessment of the brain targeting the hippocampus, images were obtained using a 3D T1-weighted magnetization prepared gradient-echo sequence: repetition time=1,900 ms; echo time=2.48 ms; inversion time=900 ms, flip angle=9°, matrix=256×256 (interpolated to 512×512), slice thickness=1.0 mm. For body composition assessment, a multi-slice, spin-echo technique was used to image the truncal area (longissimus fat/muscle): echo time=20 ms; recovery time=400 ms with four-signal averaging. […] Total scanning time was approximately 60 minutes to include both brain and body composition scanning. The MRI images were analyzed using OsiriX (Bernex, Switzerland). […] The average body weight and abdominal girth of the piglets in the Study Groups was also monitored.
# [4] = Stability of butyrate derivative compositions (sterilization, shelf-life); settings: for free butyric acid released during the sterilization of the bags: lipid chamber, GC-FID
Compound,Anti-inflammatory cytokines ([1]; 10 mmol/L in PN),IgA ([2]; 10 mmol/L in PN),Brain ([3]; 10 mmol/L in PN),free butyric acid released during the sterilization of the bags [4],Jejunal sIgA Concentration ([2]; 10 mmol/L),"stable shelf-life ([4]; 25° C. and 40% relative humidity (RH), in an amino acid formulation)",stability during production and sterilization ([4]; amino acid chamber / amino acid formulation),concentration at which aqueous composition is producible and stable ([4]; aqueous arginine butyrate composition),Anti-inflammatory cytokines ([1]; 30 mmol/L in PN),IgA ([2]; 30 mmol/L in PN),Jejunal sIgA Concentration ([2]; 30 mmol/L),Brain ([3]; 30 mmol/L in PN)
"CCCCCCCCCCCCCCCC(=O)OCC(COC(=O)CCC)OC(=O)CCCCCCCCCCCCCCC (stereo not shown) [1,2-Dipalmitoyl 3-butyryl glycerol]",+,++,−,only very limited amounts,,,,,,,,
"L-arginine, butanoate (3:4) [Arginine butyrate]",++,,−,,+++^3 (+++ indicate P < 0.01),at least 12 months,"stable during production, sterilization",up to 5500 mg/L,,,,
CCCC(=O)OCC(COC(=O)CCC)OC(=O)CCC [Tributyrin],−,++,−,only very limited amounts,++^5 (++ indicates P < 0.05),,,,+,++,++^5 (++ indicates P < 0.05),−
